Reference: patent publication US20150011559A1, “ANTIMICROBIAL AGENTS” (RUTGERS, THE STATE UNIVERSITY OF NEW JERSEY, priority 2012, published 2015)
In brackets after ≈: the same amount, converted by molar mass. Like-named read-outs stand apart in the source and are kept apart here.

Legend:
[1] = tested on: methicillin-resistant Staphylococcus aureus (MRSA); assay: Antibacterial assay (Test C), broth microdilution MIC against MRSA; assay type: cell-based; conditions: for MIC: Staphylococcus aureus, MRSA, read-out: MRSA MIC data
Method: (§1) Test C. Antibacterial Assay.
(§2) Antibacterial activity can be determined as per Clinical and Laboratory Standards Institute (CLSI) guidelines using a broth microdilution assay in which log-phase bacteria are grown at 37° C. in appropriate medium containing two-fold serial dilutions of a compound to yield final concentrations ranging from 256 to 0.06 μg/mL. For determination of minimal inhibitory concentration (MIC) values, bacterial growth is monitored after 24 to 48 hours by measuring optical density at 600 nm.
(§3) Using a procedure similar to Test C, representative compounds of the invention were tested against methicillin-susceptible Staphylococcus aureus (MSSA) and methicillin-resistant Staphylococcus aureus (MRSA).

[2] = tested on: methicillin-susceptible Staphylococcus aureus (MSSA); assay: Antibacterial assay (Test C), broth microdilution MIC against MSSA; assay type: cell-based; conditions: for MIC: Staphylococcus aureus, MSSA, read-out: MSSA MIC data
Method: as §1, §2, §3

[3] = minimal inhibitory concentration, broth microdilution, growth completely inhibited
[4] = minimal inhibitory concentration, broth microdilution, growth completely inhibited, listed as 18
[5] = minimal inhibitory concentration, broth microdilution, growth completely inhibited, listed as 19
[6] = minimal inhibitory concentration, broth microdilution, growth completely inhibited, listed as 43
[7] = minimal inhibitory concentration, broth microdilution, growth completely inhibited, listed as 46
[8] = minimal inhibitory concentration, broth microdilution, growth completely inhibited, listed as 51

Structure (SMILES)	MIC [1, 3] [µg/mL]	MIC [2, 3] [µg/mL]	also measured
C[N+](C)(C)c1ccc(-c2ccc(-c3ccccc3)cc2)cc1.[I-] [Code 1]	64	8	
CC(C)(C)c1ccc(-c2cccc(CNC(=N)N)c2)cc1 [Code 3]			MSSA MIC data ([2]; minimal inhibitory concentration, broth microdilution, growth completely inhibited, listed as 2): >64.0 µg/mL
CC(C)(C)c1ccc(-c2cccc(CNC(=N)N)c2)cc1 [Code 4]	1 (≈ 3.55 µM)		MSSA MIC data ([2]; minimal inhibitory concentration, broth microdilution, growth completely inhibited, listed as 3): 1.0 µg/mL
CC(C)(C)c1ccc(-c2ccnc(CN=C(N)N)c2)cc1 [Code 5]	16 (≈ 56.7 µM)	8 (≈ 28.3 µM)	
CC(C)(C)c1ccc(-c2ccc3sc(CNC(=N)N)nc3c2)cc1 [Code 6]	8 (≈ 23.6 µM)	4 (≈ 11.8 µM)	
CC(C)(C)OC(=O)NC(=N)NCc1nc(-c2ccc(C(C)(C)C)cc2)cs1 [Code 9]		8 (≈ 20.6 µM)	
CC(C)(C)c1ccc(-c2csc(CNC(=N)N)n2)cc1 [Code 10]	32 (≈ 111 µM)	4 (≈ 13.9 µM)	
CC(C)(C)c1ccc(-c2ncc(CNC(=N)N)s2)cc1 [Code 11]	32 (≈ 111 µM)	8 (≈ 27.7 µM)	
CC(C)(C)c1ccc(-c2cccc(/C=N/NC(=N)N)c2)cc1 [Code 12]	8 (≈ 27.2 µM)	2 (≈ 6.79 µM)	
CC(NC(=N)N)c1cccc(-c2ccc(C(C)(C)C)cc2)c1 (centres unmarked) [Code 13]	2 (≈ 6.77 µM)	1 (≈ 3.38 µM)	
COc1cc(-c2ccc(C(C)(C)C)cc2)cc(CNC(=N)N)c1OC [Code 14]	8 (≈ 23.4 µM)	2 (≈ 5.86 µM)	
CC(C)(C)c1ccc(-c2cccc(OCCn3ccnc3)c2)cc1 [Code 15]	4 (≈ 12.5 µM)	4 (≈ 12.5 µM)	
COc1cc(-c2ccc(C(C)(C)C)cc2)cc(Cn2ccnc2)c1OC [Code 16]	2 (≈ 5.71 µM)	2 (≈ 5.71 µM)	
COCCOCCOCCOCCOc1cc(CNC(=N)N)cc(-c2ccc(C(C)(C)C)cc2)c1 [Code 17]	4 (≈ 8.2 µM)	2 (≈ 4.1 µM)	
CC(C)(C)c1ccc(-c2ccc(CNC(=N)N)cc2)cc1 [Code 18]		4 (≈ 14.2 µM)	MRSA MIC data ([1]; minimal inhibitory concentration, broth microdilution, growth completely inhibited, listed as 16): 16 µg/mL
CC(C)(C)c1ccc(-c2ccc(CCN)cc2)cc1 [Code 19]		4 (≈ 15.8 µM)	MRSA MIC data ([1]; minimal inhibitory concentration, broth microdilution, growth completely inhibited, listed as 17): 4.0 µg/mL
CC(C)(C)c1ccc(-c2ccc(CNC(=N)N)cc2)cc1 [Code 20]			MRSA MIC data [1, 4]: 4.0 µg/mL; MSSA MIC data [2, 4]: 2.0 µg/mL
CC(C)(C)c1ccc(-c2ccc(CCN)cc2)cc1 [Code 21]			MRSA MIC data [1, 5]: 16 µg/mL; MSSA MIC data [2, 5]: 8.0 µg/mL

Structure (SMILES)	MIC [1, 3] [µg/mL]	MIC [2, 3] [µg/mL]	also measured
CN(C)Cc1ccc(-c2ccc(C(C)(C)C)cc2)cc1 [Code 22]	32 (≈ 120 µM)	16 (≈ 59.8 µM)	
CN(C)Cc1ccc(-c2ccc(C(C)(C)C)cc2)cc1CN=C(N)N [Code 23]	8 (≈ 23.6 µM)	4 (≈ 11.8 µM)	
CC(C)(C)c1cccc(-c2cccc(CNC(=N)N)c2)c1 [Code 24]	8 (≈ 28.4 µM)	2 (≈ 7.11 µM)	
CC(C)(C)c1csc(-c2ccc(CN=C(N)N)cc2)n1 [Code 25]	8 (≈ 27.7 µM)	4 (≈ 13.9 µM)	
CC(C)(C)c1csc(-c2cccc(CN=C(N)N)c2)n1 [Code 26]	16 (≈ 55.5 µM)	4 (≈ 13.9 µM)	
CC(C)(C)c1csc(-c2ccc(CN=C(N)N)cc2)n1 [Code 28]			MRSA MIC data ([1]; minimal inhibitory concentration, broth microdilution, growth completely inhibited, listed as 25): 8 µg/mL
CC(C)(C)c1ccc(-c2cccc(C(=O)NC(=N)N)c2)cc1 [Code 29]	8 (≈ 27.1 µM)	4 (≈ 13.5 µM)	
N=C(N)N/N=C/c1cccc(-c2ccc(Br)cc2)c1 [Code 30]			MSSA MIC data ([2]; minimal inhibitory concentration, broth microdilution, growth completely inhibited, listed as 27): 32 µg/mL
CC(C)(C)c1ccc(-c2cccc(CNNC(=N)N)c2)cc1 [Code 31]	4 (≈ 13.5 µM)	2 (≈ 6.75 µM)	
CC(C)(C)c1ccc(-c2ccccc2CCN)cc1 [Code 37]		32 (≈ 126 µM)	
CC(C)(C)c1cccc(-c2ccccc2CCN)c1 [Code 38]		32 (≈ 126 µM)	
CC(C)(C)c1ccc(-c2cccc(CCN)c2)cc1 [Code 40]	8 (≈ 31.6 µM)	16 (≈ 63.1 µM)	
NC(N)=NCc1cccc(-c2ccc(Br)cc2)c1 [Code 41]			MIC [1]: 8 µg/mL (≈ 26.3 µM); MIC [2]: 4 µg/mL (≈ 13.1 µM)
Cc1cc(C)cc(-c2cccc(CCN)c2)c1 [Code 45]		64 (≈ 284 µM)	
CC(C)(C)c1ccc(-c2cc(Cn3ccnc3)cc(NS(C)(=O)=O)c2)cc1 [Code 51]			MRSA MIC data [1, 6]: 2.0 µg/mL; MSSA MIC data [2, 6]: 1.0 µg/mL
CCC(C)NCc1cccc(-c2ccc(C(C)(C)C)cc2)c1 (centres unmarked) [Code 54]			MRSA MIC data [1, 7]: 32 µg/mL; MSSA MIC data [2, 7]: 16 µg/mL
CC(C)(C)c1ccc(-c2cc(Cn3ccnc3)cc(NS(C)(=O)=O)c2)cc1 [Code 60]			MRSA MIC data [1, 8]: >64 µg/mL; MSSA MIC data [2, 8]: 16.0 µg/mL

More lines, main results first:

MIC [1, 3] [µg/mL]	MIC [2, 3] [µg/mL]	Structure (SMILES)	also measured
4 (≈ 12.6 µM)		N=C(N)N/N=C/c1cccc(-c2ccc(Br)cc2)c1 [Code 35]	MSSA MIC data ([2]; minimal inhibitory concentration, broth microdilution, growth completely inhibited, listed as 30): 4.0 µg/mL
4	1	C[N+](C)(C)c1cccc(-c2cccc(-c3cccc(-c4ccccc4)c3)c2)c1 [Code 36]	
4 (≈ 10.5 µM)	2 (≈ 5.23 µM)	COc1cc(CN2CCN(C)CC2)cc(-c2ccc(C(C)(C)C)cc2)c1OC [Code 42]	
2 (≈ 5.59 µM)	1 (≈ 2.8 µM)	CC(C)(C)c1ccc(-c2ccc(-c3cccc(CNC(=N)N)c3)cc2)cc1 [Code 43]	
32 (≈ 77.4 µM)	4 (≈ 9.67 µM)	CC(C)(C)c1ccc(-c2cc(CNC(=N)N)cc(-c3ccc(C(C)(C)C)cc3)c2)cc1 [Code 44]	
16 (≈ 54.2 µM)		CCC(C)NCc1cccc(-c2ccc(C(C)(C)C)cc2)c1 (centres unmarked) [Code 46]	MSSA MIC data ([2]; minimal inhibitory concentration, broth microdilution, growth completely inhibited, listed as 40): 4.0 µg/mL
16 (≈ 55.1 µM)	8 (≈ 27.5 µM)	CC(C)(C)c1ccc(-c2cccc(Cn3ccnc3)c2)cc1 [Code 47]	
2 (≈ 5.74 µM)	1 (≈ 2.87 µM)	COC(=O)c1ccc(-c2ccc(C(C)(C)C)cc2)cc1Cn1ccnc1 [Code 52, methyl 3-((1H-imidazol-1-yl)methyl)-4′-(tert-butyl)-[1,1′-biphenyl]-4-carboxylate]	
2 (≈ 4.24 µM)	1 (≈ 2.12 µM)	COc1cc(OC(F)(F)F)ccc1-c1cc(CN=C(N)N)cc(-c2ccc(C(C)(C)C)cc2)c1 [Code 53]	
8 (≈ 25 µM)	2 (≈ 6.24 µM)	CC(C)(C)c1ccc(-c2ccc(CO)c(Cn3ccnc3)c2)cc1 [Code 56]	
16 (≈ 66.8 µM)	16 (≈ 66.8 µM)	CC(C)(C)c1ccc(-c2cccc(CN)c2)cc1 [Code 57]	
	> 64	CCC(C)N(Cc1cccc(-c2ccc(C(C)(C)C)cc2)c1)C(=N)N (centres unmarked) [Code 57]	
	32 (≈ 68.5 µM)	CC(C)(C)c1ccc(-c2cc(CNC(=N)N)cc(CC(Br)Br)c2)cc1 [Code 58]	
8 (≈ 23.9 µM)	8 (≈ 23.9 µM)	CC(C)(C)c1ccc(-c2cc(Cn3ccnc3)cc([N+](=O)[O-])c2)cc1 [Code 58]	
16 (≈ 45.4 µM)	16 (≈ 45.4 µM)	CC(C)(C)c1ccc(-c2cc(CNC(=N)N)cc(CNC(=N)N)c2)cc1 [Code 59]	
	> 64	CC(C)(C)c1ccc(-c2cc(N)cc(Cn3ccnc3)c2)cc1 [Code 59]	
8 (≈ 21.6 µM)	4 (≈ 10.8 µM)	CC(C)(C)c1ccc(-c2cc(Cn3ccnc3)cc(Cn3ccnc3)c2)cc1 [Code 60]	
8 (≈ 16.8 µM)	2 (≈ 4.2 µM)	CC(C)(C)c1ccc(-c2cc(CC(Br)Br)cc(Cn3ccnc3)c2)cc1 [Code 61]	MSSA MIC data [2, 3]: 4.0 µg/mL
32 (≈ 88.8 µM)	4 (≈ 11.1 µM)	O=C(Nc1nccs1)c1ccc(-c2cccc(Cn3ccnc3)c2)cc1 [Code 62]	
> 64	16 (≈ 46 µM)	CC(=O)Nc1cc(Cn2ccnc2)cc(-c2ccc(C(C)(C)C)cc2)c1 [Code 63]	
8 (≈ 21.9 µM)	2 (≈ 5.49 µM)	CC(C)(C)c1ccc(-c2cc(CNC(=N)N)cc(-c3cscn3)c2)cc1 [Code 63]	
32 (≈ 104 µM)		NC(N)=NCc1cccc(-c2ccc(-c3cncs3)cc2)c1 [Code 64]	MSSA MIC data [2, 3]: 4.0 µg/mL; MSSA MIC data ([2]; minimal inhibitory concentration, broth microdilution, growth completely inhibited, listed as 54): 16 µg/mL
32 (≈ 104 µM)		NC(N)=NCc1cccc(-c2ccc(-c3cscn3)cc2)c1 [Code 65]	MSSA MIC data [2, 3]: 8.0 µg/mL; MSSA MIC data ([2]; minimal inhibitory concentration, broth microdilution, growth completely inhibited, listed as 55): 32 µg/mL
16 (≈ 54.9 µM)	16 (≈ 54.9 µM)	CC(C)(C)c1ccc(-c2cccc(Cn3cncn3)c2)cc1 [Code 66]	MRSA MIC data [1, 3]: 32 µg/mL
	32 (≈ 76.8 µM)	CC(C)(C)c1ccc(-c2ccc(C(=O)Nc3nccs3)c(Cn3ccnc3)c2)cc1 [Code 67]	
